Reference: patent US20230190743A1, “TREATMENT WITH ILEAL BILE ACID TRANSPORTER (IBAT) INHIBITORS FOR INCREASED EVENT-FREE SURVIVAL (EFS)” (Mirum Pharmaceuticals, Inc., priority 2021, published 2023)

What was measured:
Format in all cases: in vivo, human
[1] = system: patients with PFIC due to BSEP deficiency; assay: Longitudinal serum bile acid profiling by UHPLC-MS/MS in INDIGO patients
Description: Total and individual serum BAs (sBA) including the major sub-species of TCA, TUDCA, TCDCA, TDCA, TLCA, GCA, GUDCA, GCDCA, GDCA, GLCA, CA, UDCA, CDCA, DCA, LCA and 7α-hydroxy-4-cholesten-3-one (sterol-C4), a surrogate marker for BA synthesis, were measured using a validated ultraperformance liquid chromatography coupled with tandem mass spectrometry (UHPLC-MS/MS) assay. The internal standards, a cocktail of deuterium labeled standards were added to serum, calibrators and QC samples. sBA were extracted and separated on a Kinetex C18 (2.6 μm, 100×3.0 mm) column (Phenomenex, Torrance, Calif.) with gradient elution. Quantification of individual sBA was achieved by multiple reaction monitoring (MRM) of selected transitions. Total C24 bile acid concentrations were calculated from the sum of individual species. These assays were applied to the analysis of serum from 19 patients with genetically confirmed PFIC due to BSEP deficiency (open-label phase 2 INDIGO trial; NCT02057718) treated with MRX. Changes in the composition of sBA associated with pruritus improvement measured with the Itch Reported Outcome Observer (ItchRO[Obs]) score were monitored at intervals over 72 weeks, with pruritus responders, defined as >1 scale reduction, compared with nonresponders. Linear mixed model framework was also used to model longitudinal profiles of sBA and pruritus reduction over time.

[2] = system: patients with PFIC due to BSEP deficiency (nontruncated BSEP mutation); assay: INDIGO long-term study, sBA control after >4.5 years of MRX
Description: Maralixibat (MRX) is an ileal bile acid transport (IBAT) inhibitor approved for the treatment of pruritus in patients with Alagille syndrome aged 1 year and older and under evaluation in patients with PFIC.

[3] = system: patients with Alagille syndrome (ALGS); assay: 6-year event-free survival analysis, maralixibat cohort versus GALA control group
Description: Real-world evidence (RWE) analytics continue to advance natural history comparisons in rare diseases. GALA is the largest global clinical research database for […] syndrome (ALGS). Maralixibat (MRX) is an ileal bile acid transporter inhibitor being studied in ALGS. A pre-specified analysis plan applied novel analytical techniques to compare RWE to a MRX cohort with the aim to compare event-free survival (EFS) in patients with ALGS. GALA contains retrospective data for clinical parameters, biochemistries and outcomes. The MRX database comprises of 84 ALGS patients with up to 6 years of data. EFS was defined as the time to first event of hepatic decompensation (variceal bleeding, ascites requiring therapy), surgical biliary diversion, liver transplantation (LT), or death. GALA was filtered to align key MRX eligibility criteria. The index time was determined via maximum likelihood estimation. Balance among baseline (BL) variables was assessed. Selection of patients and index time was blinded to clinical outcomes. Sensitivity and subgroup analyses, and adjustments for covariates were applied. Missing outcomes data were censored at last contact.

[4] = system: children with ALGS; assay: ICONIC study, correlation of pruritus intensity (ItchRO) with cholestasis biomarkers and quality of life
Description: This study evaluates how change in pruritus intensity correlates with change in cholestasis biomarkers in children with ALGS receiving maralixibat (ICONIC study; NCT02160782, described above). The goal of the present study is to characterize correlations between pruritus, as measured by the Itch-Reported Outcome (ItchRO) Observer tool, and multiple parameters, including sBA and sBA subspecies, autotaxin (ATX), and quality of life measures following maralixibat treatment in children with ALGS. Twenty-nine of the 31 enrolled participants completed 48 weeks of treatment, with 27 evaluated for this analysis.

[5] = patients with sBA control, to Week 237, p<0.05

## CCCCC1(CCCC)CS(=O)(=O)c2ccc(N(C)C)cc2[C@@H](c2ccc(OCc3ccc(C[N+]45CCN(CC4)CC5)cc3)cc2)[C@H]1O [maralixibat]
[1]; longitudinal data, p<0.05, result in words
  reduction from baseline in total sBA, pruritus responders vs nonresponders: significantly greater
[1]; of the 19 patients, over 72 weeks
  patients who met the pruritus-response criteria (>1 scale reduction ItchRO[Obs]): 11 patients
[1]; pruritus nonresponders, p=0.09
  proportion of unconjugated BA: 0.61±0.24%
[1]; pruritus responders
  proportion of unconjugated BA: 9.84±4.87%
[2]; after >4.5 years of MRX, result in words
  listing for liver transplant: No ongoing patients were listed for liver transplant
[2]; most frequent TEAEs mild to moderate, result in words
  long-term safety and tolerability: safe and well tolerated
[2]; of n=19 with nontruncated BSEP mutation, sBA threshold ≤100 μmol/L
  patients who achieved sBA control and remained on-study as of Week 237: 7 patients
[2]; p<0.001, result in words
  pruritus: improved significantly
[2]; p<0.01, result in words
  Growth (height z-score): improved significantly
[2]; patients who achieved control of sBA during MRX treatment
  native liver survival: > 4.5 years
[2]; patients with sBA control, Week 237, vs. 299.6 μmol/L at baseline
  mean sBA value: 44.2 (38.8) μmol/L
[2]; patients with sBA control, Week 237, vs. 0.6 at BL
  mean direct bilirubin value: 0.1 mg/dL
[2]; patients with sBA control, Week 237, vs. 0.8 at BL
  mean total bilirubin value: 0.7 mg/dL
[2]; patients with sBA control, Week 237, vs. 57.9 at BL
  mean ALT value: 16.7 U/L
[2]; patients with sBA control, Week 237, vs. 62.1 at BL
  mean AST value: 26.7 U/L
[2]; [5]
  Mean (SE) sBA reduction: 234.4 (80.5) μmol/L
  Mean reduction in ALT: 41.1 (14.3) U/L
  Mean reduction in AST: 35.4 (11.5) U/L
[2]; patients with sBA control, to Week 237, p=0.13
  Mean reduction in direct bilirubin: 0.4 (0.2) mg/dL
[2]; patients with sBA control, to Week 237, p=0.8
  Mean reduction in total bilirubin: 0.1 (0.3) mg/dL
[2]; result in words
  bilirubin in those with abnormal bilirubin: normalized
[3]; MRX cohort, patients with ALGS (GALA control 50%)
  crude 6-year EFS: 73%
[3]; adjusted for age, sex, TB, ALT, 95% CI:0.189-0.491, p<0.0001
  EFS hazard ratio (HR), MRX cohort vs GALA control: 0.305
[4]; at week 48
  overall average ItchRO score reduction: 1.6 points
[4]; one participant
  ItchRO score reduction of the one participant who normalized: −3.5 points
[4]; result in words
  pruritus, using ItchRO and CSS scores: significant and clinically meaningful improvements in pruritus
[4]; sBA reduction (%) 50, N 8
  Change in ItchRO score (points): −1.90 points
[4]; sBA reduction (%) 60, N 8
  Change in ItchRO score (points): −2.12 points
[4]; sBA reduction (%) 70, N 6
  Change in ItchRO score (points): −2.31 points
[4]; sBA reduction (%) 80, N 3
  Change in ItchRO score (points): −2.79 points
[4]; sBA reduction (%) 90, N 1
  Change in ItchRO score (points): −2.71 points
